Like-named read-outs stand apart in the source and are kept apart here. Each block holds one compound with its values, some of them ahead of it.
What was measured:
[1] = biological target: hENPP1 enzyme (Homo sapiens (Human), UniProt P22413); test: ENPP1 enzymatic inhibition in biochemical assay (TMP-pNP hydrolysis, OD405); details: ENPP1 enzymatic inhibition activity, TMP-pNP substrate, pH 9.5
Excerpt: ENPP1 was a transmembrane glycoprotein capable of hydrolyzing nucleotides and derivatives with a nucleotide-5′-monophosphate structure. ENPP1 was capable of hydrolyzing artificial thymidine 5′-monophosphate p-nitrophenyl ester (TMP-pNP) into nucleotide 5′-monophosphate and p-nitrophenol which was a chromogenic product. The formation amount of p-nitrophenol product could be directly measured by its absorbance at 405 nm, which was directly proportional to the enzyme activity.
The compound was dissolved in DMSO, with stock concentration of 1 mM, and diluted in a 4-fold serial gradient to make 10 concentration points. Echo was used to transfer 300 nL of gradient concentrations of compound to a 384-well assay plate (final concentration: starting at 10 μM, 4-fold serial gradient dilution, 10 concentration points). First, 15 μL of 0.2 ng/uL hENPP1 enzyme (2× final concentration) prepared in assay buffer (250 mM NaCl, 50 mM Tris, pH=9.5) was added to each well. Then, 15 μL of 400 μM TMP-pNP (2× final concentration) diluted in assay buffer was added. After incubating at 37° C. for 0.5 hrs, the OD405 nm value was read by the microplate reader. The percentage inhibition was calculated using the formula: % Inhibition Rate=(ODhigh signal control−ODsample well)/(ODhigh signal control−ODlow signal control)*100. The IC50 value was calculated using four-parameter fit. The high signal control was the DMSO group without inhibitors, and the low signal control was the blank control group.

[2] = biological target: ENPP1 in cultured MDA-MB-231 cells (Homo sapiens (Human), UniProt P22413); test: ENPP1 enzymatic inhibition in cellular assay (MDA-MB-231 cells, TMP-pNP); assay type: cell-based; details: ENPP1 enzymatic inhibition activity at the cellular level
ENPP1 in cultured MDA-MB-231 cells, sequence (P22413 whole entry): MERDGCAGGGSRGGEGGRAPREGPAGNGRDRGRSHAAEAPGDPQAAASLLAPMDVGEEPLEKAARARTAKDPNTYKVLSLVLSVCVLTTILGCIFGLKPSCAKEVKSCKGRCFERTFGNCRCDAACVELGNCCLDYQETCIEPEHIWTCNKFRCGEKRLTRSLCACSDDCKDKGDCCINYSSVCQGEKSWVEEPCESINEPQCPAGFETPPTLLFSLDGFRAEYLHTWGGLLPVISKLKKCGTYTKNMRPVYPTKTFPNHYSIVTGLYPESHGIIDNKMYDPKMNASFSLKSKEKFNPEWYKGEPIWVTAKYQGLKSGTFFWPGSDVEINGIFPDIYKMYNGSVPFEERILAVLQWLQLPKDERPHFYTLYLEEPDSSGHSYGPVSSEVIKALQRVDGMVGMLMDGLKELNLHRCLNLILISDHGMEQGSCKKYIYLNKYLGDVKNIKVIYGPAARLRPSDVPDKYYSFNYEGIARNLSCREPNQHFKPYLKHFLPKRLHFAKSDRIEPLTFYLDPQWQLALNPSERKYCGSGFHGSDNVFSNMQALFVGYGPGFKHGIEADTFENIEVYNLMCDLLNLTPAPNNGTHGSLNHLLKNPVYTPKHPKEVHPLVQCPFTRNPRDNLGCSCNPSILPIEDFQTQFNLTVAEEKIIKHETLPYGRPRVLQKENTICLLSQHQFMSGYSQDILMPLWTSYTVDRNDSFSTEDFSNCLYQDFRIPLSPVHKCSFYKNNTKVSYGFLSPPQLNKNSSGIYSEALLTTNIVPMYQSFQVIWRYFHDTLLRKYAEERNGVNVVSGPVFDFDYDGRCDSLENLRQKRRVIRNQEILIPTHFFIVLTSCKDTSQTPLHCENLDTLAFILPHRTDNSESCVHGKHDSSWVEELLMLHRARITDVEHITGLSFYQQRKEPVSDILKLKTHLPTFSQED
Description: ENPP1 was mainly expressed on the surface of cell membranes and could hydrolyze 2′3′-cGAMP into 5′-GMP and 5′-AMP. Similarly, ENPP1 could also hydrolyze the synthetic phosphate TMP-pNP, generating nucleotide-5′-monophosphate and the chromogenic product p-nitrophenol. Therefore, TMP-pNP was used as a substrate to reflect the enzyme activity of ENPP1 in cultured MDA-MB-231 cells. The amount of p-nitrophenol formed in the culture medium was determined by absorbance at 405 nim, which was directly proportional to the activity of ENPP1.
MDA-MB-231 cells was seeded with a density of 6000 per well in 384-well plate and cultured overnight (about 18 hrs) at 37° C. The compound was diluted into a 50× serial gradient dilution using an assay buffer (250 mM NaCl, 50 mM Tris, pH=9.5), starting at 500 μM, and diluted in a 4-fold serial gradient to make 10 concentration points. The cell culture medium was removed, and 10 μL of gradient concentrations of compounds were added to each well of the 384-well assay plate (final concentration: starting at 10 μM, 4-fold serial gradient dilution, with 10 concentration points). Then, 10 μL of 1 mM TMP-pNP (2× final concentration) dissolved in the assay buffer was added to the well. After incubating at 37° C. for 3 hrs, the OD405 nm value was read by the microplate reader. The percentage inhibition was calculated using the formula: % Inhibition Rate=(ODhigh signal control−ODsample well)/(ODhigh signal control−ODlow signal control)*100. The IC50 value was calculated using four-parameter fit. The high signal control was the DMSO group without inhibitors, and the low signal control was the blank control group.

[3] = Pharmacokinetics in mice, compound concentration by LC-MS/MS; assay type: in vivo, CD-1 male mice; details: for AUC(0-t): read-out: AUC0-24 h; for Vd: read-out: VSS
[4] = male, CD-1, mouse, plasma, 10 mg/kg, PO, 10 mpk vs IV, 2 mpk
[5] = male, CD-1, mouse, plasma, 2 mg/kg, IV, 2 mpk
[6] = male, CD-1, mouse, plasma, 10 mg/kg, PO, 10 mpk
[7] = male, CD-1, mouse, plasma, 10 mg/kg, PO, 10 mpk, read-out: Cmax
[8] = male, CD-1, mouse, plasma, 10 mg/kg, PO, 10 mpk, read-out: Tmax

hENPP1 enzyme, sequence (P22413 whole entry): as above

SMILES: COc1ccc2c(ncc3ncc(=O)n(Cc4c(F)cc(S(N)(=O)=O)cc4F)c32)n1 [Compound 002, 3,5-difluoro-4-((8-methoxy-2-oxopyrazino[2,3-c][1,8]naphthyridin-1(2H)-yl)methyl)benzenesulfonamide]
IC50 [1]: 0.2 to 2 nM

SMILES: COc1ccc2c(ncc3ccc(=O)n(Cc4c(F)cc(S(N)(=O)=O)cc4F)c32)n1 [Compound 008, 3,5-difluoro-4-((8-methoxy-2-oxopyrido[2,3-h][1,6]naphthyridine-1(2H)-yl)methyl)benzenesulfonamide]
EC50 [2]: < 0.5 nM
IC50 [1]: 0.1 to 0.2 nM
clearance [3, 5]: 4.78 mL/min/kg
half-life [3, 5]: 4.56 h
AUC(0-t) [3, 5]: 7450 ng·h/mL
Vd [3, 5]: 1.52 L/kg
half-life [3, 6]: 3.87 h
bioavailability [3, 4]: 20%
AUC(0-t) [3, 6]: 7340 ng·h/mL
Cmax [3, 7]: 798 ng/mL
Tmax [3, 8]: 3.17 h

SMILES: COc1ccc2c(ncc3c(=O)[nH]c(=O)n(Cc4c(F)cc(S(N)(=O)=O)cc4F)c32)n1 [Compound 017]
IC50 [1]: 0.2 to 2 nM

SMILES: COc1ccc2c3c(cnc2n1)NCC(=O)N3Cc1c(F)cc(S(N)(=O)=O)cc1F [Compound 049, 3,5-difluoro-4-((8-methoxy-2-oxo-3,4-dihydropyrazino[2,3-c][1,8]naphthyridine-1(2H)-yl)methyl)benzenesulfonamide]
IC50 [1]: 0.2 to 2 nM

SMILES: COc1ccc2c3c(cnc2n1)N(C(=O)OC(C)(C)C)CCN3Cc1c(F)cc(S(N)(=O)=O)cc1F [Compound 050, tert-butyl 1-(2,6-difluoro-4-sulfamoylbenzyl)-8-methoxy-2,3-dihydropyrazino[2,3-c][1,8]naphthyridine-4(1H)-carboxylate]
IC50 [1]: 0.2 to 2 nM

SMILES: COc1ccc2c3c(cnc2n1)NCC(=O)N3Cc1c(F)cc(S(N)(=O)=O)cc1F [Compound 051]
IC50 [1]: 0.2 to 2 nM

SMILES: COc1nc2ncc3c(c2cc1F)N(Cc1c(F)cc(S(N)(=O)=O)cc1F)C(=O)CN3 [Compound 055]
IC50 [1]: 0.1 to 0.2 nM

SMILES: COc1ccc2c3c(cnc2n1)CN(CC(F)(F)F)C(=O)N3Cc1c(F)cc(S(N)(=O)=O)cc1F [Compound 056]
IC50 [1]: 0.1 to 0.2 nM

SMILES: COc1ccc2c(ncc3[nH]c(=O)c(=O)n(Cc4c(F)cc(S(N)(=O)=O)cc4F)c32)n1 [Compound 062, 3,5-difluoro-4-((8-methoxy-2,3-dioxo-3,4-dihydropyrazino[2,3-c][1,8]naphthyridine-1(2H)-yl)methyl)benzenesulfonamide]
EC50 [2]: < 0.5 nM
IC50 [1]: < 0.1 nM

SMILES: CCOc1ccc2c(ncc3ncc(=O)n(Cc4c(F)cc(S(N)(=O)=O)cc4F)c32)n1 [Compound 063]
IC50 [1]: 0.2 to 2 nM

SMILES: COc1ccc2c3c(cnc2n1)NCCN3Cc1c(F)cc(S(N)(=O)=O)cc1F [Compound 066, 3,5-difluoro-4-((8-methoxy-3,4-dihydropyrazino[2,3-c][1,8]naphthyridine-1(2H)-yl)methyl)benzenesulfonamide]
IC50 [1]: 0.2 to 2 nM

SMILES: COc1ccc2c3c(cnc2n1)COC(=O)N3Cc1ccc(S(N)(=O)=O)cc1 [Compound 067, 4-((8-methoxy-2-oxo-2H-[1,3]oxazino[5,4-c][1,8]naphthyridin-1(4H)-yl)methyl)benzenesulfonamide]
IC50 [1]: 0.2 to 2 nM

SMILES: COc1ccc2c3c(cnc2n1)COC(=O)N3Cc1ccc(S(N)(=O)=O)cn1 [Compound 070, 6-((8-methoxy-2-oxo-2H-[1,3]oxazino[5,4-c][1,8]naphthyridin-1(4H)-yl)methyl)pyridine-3-sulfonamide]
IC50 [1]: 0.1 to 0.2 nM

SMILES: COc1ccc2c3c(cnc2n1)CN(C1CC1)C(=O)N3Cc1c(F)cc(S(N)(=O)=O)cc1F [Compound 074]
IC50 [1]: 0.1 to 0.2 nM

SMILES: COc1cnc2c(c1)ncc1[nH]c(=O)c(=O)n(Cc3c(F)cc(S(N)(=O)=O)cc3F)c12 [Compound 076]
IC50 [1]: 0.1 to 0.2 nM

SMILES: COc1ccc2c(ncc3c2n(Cc2c(F)cc(S(N)(=O)=O)cc2F)c(=O)n3CC(F)(F)F)n1 [ZX-131, reference compound]
EC50 [2]: 0.5 to 2 nM
IC50 [1]: 0.1 to 0.2 nM
AUC0-24 h ([3]; IV, 2 mpk): 4419 ng·h/mL
CL ([3]; IV, 2 mpk): 7.2 mL/min/kg
T1/2 ([3]; IV, 2 mpk): 6.01 h
VSS ([3]; IV, 2 mpk): 3.212 L/kg
AUC0-24 h ([3]; PO, 10 mpk): 3274 ng·h/mL
Cmax ([3]; PO, 10 mpk): 247 ng/mL
T1/2 ([3]; PO, 10 mpk): 7.78 h
Tmax ([3]; PO, 10 mpk): 6 h
F % ([3]; PO, 10 mpk vs IV, 2 mpk): 15%

The next lines start with the values.

EC50 [2]: < 0.5 nM
IC50 [1]: 0.1 to 0.2 nM
bioavailability [3, 4]: 92.6%
SMILES: COc1ccc2c3c(cnc2n1)COC(=O)N3Cc1c(F)cc(S(N)(=O)=O)cc1F [Compound 006, 3,5-difluoro-4-((8-methoxy-2-oxo-2H-[1,3]oxazino[5,4-c][1,8]naphthyridin-1(4H)-yl)methyl)benzenesulfonamide]

EC50 [2]: < 0.5 nM
IC50 [1]: 0.1 to 0.2 nM
SMILES: COc1cc2ncc3c(c2cc1F)N(Cc1c(F)cc(S(N)(=O)=O)cc1F)C(=O)NC3 [Compound 007, 3,5-difluoro-4-((9-fluoro-8-methoxy-2-oxo-3,4-dihydropyrimido[5,4-c]quinolin-1(2H)-yl)methyl)benzenesulfonamide]

IC50 [1]: 0.1 to 0.2 nM
SMILES: COc1ccc2c3c(cnc2c1)COC(=O)N3Cc1c(F)cc(S(N)(=O)=O)cc1F [Compound 030, 3,5-difluoro-4-((8-methoxy-2-oxo-2H-[1,3]oxazino[5,4-c]quinolin-1(4H)-yl)methyl)benzenesulfonamide]

IC50 [1]: 0.2 to 2 nM
SMILES: COc1cc2ncc3c(c2cc1OC)N(Cc1c(F)cc(S(N)(=O)=O)cc1F)C(=O)OC3 [Compound 031, 4-((8,9-dimethoxy-2-oxo-2H-[1,3]oxazino[5,4-c]quinolin-1(4H)-yl)methyl)-3,5-difluorobenzenesulfonamide]

EC50 [2]: < 0.5 nM
IC50 [1]: < 0.1 nM
clearance [3, 5]: 1.92 mL/min/kg
half-life [3, 5]: 3.07 h
AUC(0-t) [3, 5]: 18300 ng·h/mL
Vd [3, 5]: 0.46 L/kg
half-life [3, 6]: 2.79 h
bioavailability [3, 4]: 38.1%
AUC(0-t) [3, 6]: 34800 ng·h/mL
Cmax [3, 7]: 4870 ng/mL
Tmax [3, 8]: 0.583 h
SMILES: COc1cc2ncc3c(c2cc1F)N(Cc1c(F)cc(S(N)(=O)=O)cc1F)C(=O)OC3 [Compound 048, 3,5-difluoro-4-((9-fluoro-8-methoxy-2-oxo-2H-[1,3]oxazino[5,4-c]quinolin-1(4H)-yl)methyl)benzenesulfonamide]

IC50 [1]: < 0.1 nM
clearance [3, 5]: 4.1 mL/min/kg
half-life [3, 5]: 3.51 h
AUC(0-t) [3, 5]: 8090 ng·h/mL
Vd [3, 5]: 0.826 L/kg
half-life [3, 6]: 3.39 h
bioavailability [3, 4]: 49.7%
AUC(0-t) [3, 6]: 20100 ng·h/mL
Cmax [3, 7]: 7900 ng/mL
Tmax [3, 8]: 0.5 h
SMILES: COc1ccc2c3c(cnc2n1)CCC(=O)N3Cc1c(F)cc(S(N)(=O)=O)cc1F [Compound 054, 3,5-difluoro-4-((8-methoxy-2-oxo-3,4-dihydropyrido[2,3-h][1,6]naphthyridine-1(2H)-yl)methyl)benzenesulfonamide]

IC50 [1]: 0.1 to 0.2 nM
SMILES: COc1ccc2c3c(cnc2n1)COC(=O)N3Cc1ccc(S(N)(=O)=O)cc1F [Compound 071, 3-fluoro-4-((8-methoxy-2-oxo-2H-[1,3]oxazino[5,4-c][1,8]naphthyridin-1(4H)-yl)methyl)benzenesulfonamide]

IC50 [1]: 0.2 to 2 nM
SMILES: COc1ccc2c3c(cnc2c1)N(C(=O)CO)CC(=O)N3Cc1c(F)cc(S(N)(=O)=O)cc1F [Compound 072]

Source: patent US20250115609A1, “AROMATIC HETEROCYCLIC COMPOUNDS, PREPARATION METHOD THEREFOR AND USES THEREOF” (Innovstone Therapeutics Limited, priority 2021, published 2025)
